Data from patent US9175077B2, “Nucleic acids encoding biologically active polypeptides derived from a novel early stage pregnancy factor designated maternin (MA)” (NOBEL BIOSCIENCES LLC, priority 1999, dated 2015).
Entries after “also recorded” stand apart in the source; their conditions may differ.

Columns and labels:
[1] = system: Ewing's sarcoma; test: Confocal microscopy apoptosis; type: cell-based, human; settings: 200 ng/ml; 24 hrs
Procedure: (§1) More extensive studies of the effects of MA and with truncated synthetic forms of MA (MAS) on a wide range of other human tumor cells were carried out using three-dimensional confocal microscopy. Cells were cultured and then seeded onto gelatinized glass chamber slides and incubated 24 hrs with the various test materials. The slides were then fixed with formalin and treated serially with Triton X-100 (0.01%) for 10 min at 25°, 0.4 ug/ml fluorescein isothiocyanate (FITC)-labeled Phalloidin (Sigma Chem. Co.) at room temperature for 30 min to bind actin, washed with PBS and the DNA stained with Propidium iodide (PI) (0.5 ug·ml) (Sigma Chemical Co.), for 15 min. The stained slides were washed and mounted on slow fade (Molecular Probes, Inc., Eugene, Oreg.) and examined through a dual emission filter XF53 (Omega, Inc., Brattlesboro, Va.) by fluorescent microscopy. In some experiments only DNA staining was performed. In these instances Triton X-100 was not used. The slides were stained with PI and examined for cell morphology and chromatin degradation under 3D confocal microscopy.

[2] = system: KS Y-1 cells; test: Confocal microscopy apoptosis; type: cell-based, human; settings: 200 ng/ml; 24 hrs
Procedure: as §1

[3] = system: carcinoma of the breast HTB124; test: Confocal microscopy apoptosis; type: cell-based, human; settings: 200 ng/ml; 24 hrs
Procedure: as §1

[4] = system: carcinoma of the colon; test: Confocal microscopy apoptosis; type: cell-based, human; settings: 200 ng/ml; 24 hrs
Procedure: as §1

[5] = system: carcinoma of the kidney HTB46; test: Confocal microscopy apoptosis; type: cell-based, human; settings: 200 ng/ml; 24 hrs
Procedure: as §1

[6] = system: carcinoma of the lung HTB184; test: Confocal microscopy apoptosis; type: cell-based, human; settings: 200 ng/ml; 24 hrs
Procedure: as §1

[7] = system: carcinoma of the pancreas CRL 1682; test: Confocal microscopy apoptosis; type: cell-based, human; settings: 200 ng/ml; 24 hrs
Procedure: as §1

[8] = system: fibrosarcoma 4TB166; test: Confocal microscopy apoptosis; type: cell-based, human; settings: 200 ng/ml; 24 hrs
Procedure: as §1

[9] = system: gliobastoma HTB16; test: Confocal microscopy apoptosis; type: cell-based, human; settings: 200 ng/ml; 24 hrs
Procedure: as §1

[10] = system: leukemia and lymphoma cell lines: HUT78, DAVDI, HG, SULTAN, T-cell lymphoma; test: Confocal microscopy apoptosis; type: cell-based, human; settings: 200 ng/ml; 24 hrs
Procedure: as §1

[11] = system: melanoma HTB67; test: Confocal microscopy apoptosis; type: cell-based, human; settings: 200 ng/ml; 24 hrs
Procedure: as §1

[12] = system: prostate carcinoma cell line PC3; test: Confocal microscopy apoptosis; type: cell-based, human; settings: 200 ng/ml; 24 hrs
Procedure: as §1

[13] = system: prostate carcinoma cell line PC4; test: Confocal microscopy apoptosis; type: cell-based, human; settings: 200 ng/ml; 24 hrs
Procedure: as §1

[14] = system: human carcinoma and sarcoma cells (PC3, KS Y-1); test: Xenotransplanted human tumors in immunodeficient mice; type: in vivo; settings: controls at equivalent and higher molar concentrations
Procedure: In the first set of experiments, MA was tested against tumors formed by xenotransplantation of various human carcinoma and sarcoma cells in immunodeficient mice. […] […] Three different synthetic forms of MA were used: full length (MAS3) and the previously described MAS1 and MAS2 (Panel C).

[15] = system: HIV-1; settings: controls at similar, equimolar or higher concentrations
Procedure: Virus (MOI of 0.001) was added to 10^6 cells in RPMI-1640 with 10% FCS. One hour later the various polypeptides were added once. The cells cultured for 3 days with 5 ug PHA and 20 i.m. of II-2/ml at 37°, after which virus was estimated by determining p24 (HIV-1) or p27 (SIV) (Organon-Teknika).
The effect of native and synthetic MA on HIV-1 infection in vitro was evaluated using PHA and II-2 stimulated primary peripheral blood cells (PBMC), CD4+ T-cells enriched fractions from PBMC, and CD14+ macrophage enriched fractions. Infection was with HIV-1 IIIB (PBMC and CD4+ T-cells), HIV-1 Ba-L (macrophages), and two primary HIV-1 isolates not passaged in any cell line (PBMC).

[16] = Lethally irradiated rats and mice; settings: treated at time of radiation, 3×/week for 4 weeks
Procedure: In order to determine in vivo relevance of the prohematopoietic effects of MA treated rats and mice under several conditions of bone marrow suppression. First, the effects of native MA and pMA and of the synthetic 15-mer MAS1 were treated for their capacity to reduce or prevent the effects of lethal doses of gamma irradiation. […] MA, pMA, MAS1, and various control polypeptides were given 48 and 24 hrs before, during, or 24 hrs after radiation. The animals treated prior to radiation received either 100 ng vs. 1 ug (rats) or 50 ng vs. 500 ng (mice) as 2 subcutaneous injections.
It is not yet possible to determine the precise molar dose of pMA because of less certainty on its full-length sequence.
To ascertain that the MA effect did promote hematopoiesis in these animals we examined the bone marrow for cellularity and colony formation and determined peripheral blood counts.

[17] = Lethal dose taxol in Sprague-Dawley rats; type: in vivo
Procedure: Sprague-Dawley rats were given taxol in large lethal doses, 4.5 mg in one I.P. inoculation. […] Bone marrow suppression can also be a side effect of the clinical use of taxol.^179 As in the radiation experiments, either MA, pMA, MAS1, or various polypeptide controls were given subcutaneously only in two doses 24 and 48 hrs before taxol treatment or were given 3×/week for 4 weeks. […]

[18] = Acutely bled rats; type: in vivo, Sprague-Dawley rats; settings: i.p. 24 and 48 hrs after 35-40% blood loss
From the text: To delineate the effects of MA on hematopoiesis in the absence of any external bone marrow suppression, blood (35-40% of total blood volume) was removed from five Sprague-Dawley rats by intracardiac puncture. […] Each panel illustrates the mean values for the three animals treated with MAS1. Thus, MA and related derivatives have potent pro-hematopoietic effects.

[19] = system: human primitive hematopoietic stem cells; test: Long term cultures (LTC-IC, stroma-free) of CD34+, CD38− cells from human BMMC; type: cell-based
Procedure: In the human system, a long-term culture-initiating assay (LTC-IC) can be used to detect cells that can generate myeloid clonogenic cells (CFC/colony forming cells) in long-term cultures for a minimum of 5 weeks. Bone marrow stromal was produced by culturing 107 fresh BM-MNC in a T25 flash for at least 2 weeks in 5 mL stromal medium; 12.5% horse [HS] and 12.5% fetal calf serum [FCS]; both from hyclone [Logan, Utah], Iscove's modified Dulbecco's medium [IMDM, GIBCO-BRL], 2-mercaptoethanol [Sigma, st. Louis, Mo.], 10^−6 mol/L hydrocortisone [Sigma] and penicillin/streptomycine.
One or 2 days before co-cultures, bone marrow stroma was irradiated with 15Gy and plated at 7×10^3/cm^2 in 24-well plates to form pre-established stromal layers for the long-term cultures. Limiting dilution was 1 to 1000 CD34+ bone marrow/cord blood cells and equivalent aliquots, i.e., limiting dilutions of the cells grown in long-term cultures stroma-free cultures after 2 to 20 weeks were seeded on top of the irradiated bone marrow stroma in culture medium containing IMDM, 12.5% HS, 12.5% FCS, 2-mercptoethanol, and 10^−6 mon-hydrocortisone for 5 weeks LTC-IC assay period. Non-adherent cells were removed from the cultures, combined with the corresponding trypsinized adherent cells, washed and assayed for colony forming units (CFU-Cs) in methylcellulose medium containing 1.3% methylcellulose (Fluka Chemilka Biochemika, buck\hs, Switzerland), 30% FCS, EPO (3 U/ml), IL-3 (20 ng/ml), G-CSF (20 ng/ml), GM-CSF (20 ng/ml) and KL (c-kit, 50 ng/ml). These cultures were incubated at 37° C. and colonies were scored 2 to 3 weeks later. LTC-IC enumeration was based on the number of CFU-C scored in the limiting assays [LDA] and another technique.
Stroma-free long-term cultures were performed as follows. 2 to 10×10^3 CD34+/CD34^−CD38^− from bone marrow/CB/PBMC cells were cultured in quadrutriplicate flat bottomed 24 well plates in 1 ml to of IMDM supplemented with 10% FCS and the following cytokines: IL-3 (10 ng/ml), IL-6 (10 ng/ml), KL [c-kit 50 ng/ml, FL (50 ng/ml) and TPO (10 U/ml), which added, alone or in combination of two or more factors, to each series of microwells twice a week. The wells were grown at 37° C. and share a number of features with in vivo murine long-term repopulating cells. These include assay for cobblestone areas colony forming cells (CAFC), high proliferative potentials colony-forming cells (HPP-CFC), CFU-GEMM, CFU-B1 (blast colony forming units).

Row | Sequence | induction of apoptosis [1] | induction of apoptosis [2] | induction of apoptosis [3] | induction of apoptosis [4] | induction of apoptosis [5] | induction of apoptosis [6] | induction of apoptosis [7] | induction of apoptosis [8] | induction of apoptosis [9] | induction of apoptosis [10] | induction of apoptosis [11] | induction of apoptosis [12] | induction of apoptosis [13] | further results
1 | NYRDVRFESIRLPGCPRGVNPVVSYAVALS (listed as Homo sapiens) [MAS2] | induced apoptosis | induced apoptosis | induced apoptosis | induced apoptosis | induced apoptosis | induced apoptosis | induced apoptosis | induced apoptosis | induced apoptosis | induced apoptosis | induced apoptosis | induced apoptosis | induced apoptosis | effect on xenotransplanted tumor (qualitative) [14]: hypocellularity and degenerative changes of the cells; also recorded: undergoing apoptosis; inhibition of HIV replication (qualitative) [15]: full-inhibition
2 | VRFESIRLPGCPRGV (listed as Homo sapiens) [MAS1] | induced apoptosis | induced apoptosis | induced apoptosis | induced apoptosis | induced apoptosis | induced apoptosis | induced apoptosis | induced apoptosis | induced apoptosis | induced apoptosis | induced apoptosis | induced apoptosis | induced apoptosis | survival ([16]; higher dose, over 100 days): 100%; survival ([16]; lowest doses): 80%; survival of pretreated animals ([17]; low dose, two doses 24 and 48 hrs before taxol): Sixty-percent; survival maintained to day 80 ([17]; therapy maintained 28 days, high dose (1000 ng)): ~80%; survival maintained to day 80 ([17]; therapy maintained 28 days, low dose (100 ng)): about 60%; survival on day 5 ([17]; therapy maintained 28 days, low or high dose): 100%; recovery of peripheral blood cells [18]: prompt recovery; Rx MAS1: % of CD1 [19]: 35%; Rx MAS1: % of CD68 [19]: 27%
